For 39 molecules, class results are on record in patent publication US20050197350A1, “Novel quinoline, tetrahydroquinazoline, and pyrimidine derivatives and methods of treatment related to the use thereof” (TAISHO PHARMACEUTICAL CO., LTD., priority 2003, published 2005).

This test has as its system MCH receptors. Description: MCH receptor activity class (method not given). Conditions: MCH receptor; class by percent of control at 10^-7 M or IC50.

Consider `CN(C)c1nc(N[C@H]2CC[C@@H](NC(=S)Nc3cc(Cl)c(Cl)c(Cl)c3Cl)CC2)nc2c1CCCC2` [compound 1999], for which the class is reported as 3 (Class 3 The value of percent of control at 10^−7 M was more than 60% or the value of IC50 was more than 200 nM.).
Take `CN(C)c1nc(N[C@H]2CC[C@@H](NC(=S)Nc3cc(Cl)c(Cl)cc3Cl)CC2)nc2c1CCCC2` [compound 2000]: the class is 3 (Class 3 The value of percent of control at 10^−7 M was more than 60% or the value of IC50 was more than 200 nM.).
For `CN(C)c1nc(N[C@H]2CC[C@@H](NC(=S)Nc3c(F)cc(F)cc3F)CC2)nc2c1CCCC2` [compound 2001] the value was 3 (Class 3 The value of percent of control at 10^−7 M was more than 60% or the value of IC50 was more than 200 nM.).
The result for `CC(C)c1cccc(C(C)C)c1NC(=S)N[C@H]1CC[C@@H](Nc2nc3c(c(N(C)C)n2)CCCC3)CC1` [compound 2002] reads 3 (Class 3 The value of percent of control at 10^−7 M was more than 60% or the value of IC50 was more than 200 nM.); that for `CN(C)c1nc(N[C@H]2CC[C@@H](NC(=S)Nc3cc(C(F)(F)F)ccc3Cl)CC2)nc2c1CCCC2` [compound 2003], 3 (Class 3 The value of percent of control at 10^−7 M was more than 60% or the value of IC50 was more than 200 nM.).
As for `CSc1cccc(NC(=S)N[C@H]2CC[C@@H](Nc3nc4c(c(N(C)C)n3)CCCC4)CC2)c1` [compound 2004], the class is 3 (Class 3 The value of percent of control at 10^−7 M was more than 60% or the value of IC50 was more than 200 nM.).
Turning to `CN(C)c1nc(N[C@H]2CC[C@@H](NC(=S)NCc3ccc(Cl)c(Cl)c3)CC2)nc2c1CCCC2` [compound 2005], the class is on record as 3 (Class 3 The value of percent of control at 10^−7 M was more than 60% or the value of IC50 was more than 200 nM.).
The result for `COc1cc(NC(=S)N[C@H]2CC[C@@H](Nc3nc4c(c(N(C)C)n3)CCCC4)CC2)cc(OC)c1` [compound 2006] reads 3 (Class 3 The value of percent of control at 10^−7 M was more than 60% or the value of IC50 was more than 200 nM.); that for `Cc1cc(C)cc(NC(=S)N[C@H]2CC[C@@H](Nc3nc4c(c(N(C)C)n3)CCCC4)CC2)c1` [compound 2007], 3 (Class 3 The value of percent of control at 10^−7 M was more than 60% or the value of IC50 was more than 200 nM.); that for `CN(C)c1nc(N[C@H]2CC[C@@H](NC(=S)Nc3cccc(OCc4ccccc4)c3)CC2)nc2c1CCCC2` [compound 2008], 3 (Class 3 The value of percent of control at 10^−7 M was more than 60% or the value of IC50 was more than 200 nM.).
As to `CN(C)c1nc(N[C@H]2CC[C@@H](NC(=S)Nc3cccc(C(=O)O)c3)CC2)nc2c1CCCC2` [compound 2009], the class was 3 (Class 3 The value of percent of control at 10^−7 M was more than 60% or the value of IC50 was more than 200 nM.).
`Cc1ccc(NC(=S)N[C@H]2CC[C@@H](Nc3nc4c(c(N(C)C)n3)CCCC4)CC2)cc1Cl` [compound 2010]: the class is 3 (Class 3 The value of percent of control at 10^−7 M was more than 60% or the value of IC50 was more than 200 nM.).
For `CN(C)c1nc(N[C@H]2CC[C@@H](NC(=S)NCCCc3ccccc3)CC2)nc2c1CCCC2` [compound 2011] the value was 3 (Class 3 The value of percent of control at 10^−7 M was more than 60% or the value of IC50 was more than 200 nM.).
For `CCN(CC)c1ccc(NC(=S)N[C@H]2CC[C@@H](Nc3nc4c(c(N(C)C)n3)CCCC4)CC2)cc1` [compound 2012] the value was 3 (Class 3 The value of percent of control at 10^−7 M was more than 60% or the value of IC50 was more than 200 nM.); for `CCOC(=O)c1ccc(NC(=S)N[C@H]2CC[C@@H](Nc3nc4c(c(N(C)C)n3)CCCC4)CC2)cc1` [compound 2013], 3 (Class 3 The value of percent of control at 10^−7 M was more than 60% or the value of IC50 was more than 200 nM.); for `CN(C)c1nc(N[C@H]2CC[C@@H](NC(=S)NCc3ccc(F)cc3)CC2)nc2c1CCCC2` [compound 2015], 3 (Class 3 The value of percent of control at 10^−7 M was more than 60% or the value of IC50 was more than 200 nM.).
The result for `CC(C)c1ccc(NC(=S)N[C@H]2CC[C@@H](Nc3nc4c(c(N(C)C)n3)CCCC4)CC2)cc1` [compound 2016] reads 3 (Class 3 The value of percent of control at 10^−7 M was more than 60% or the value of IC50 was more than 200 nM.); that for `COc1ccc(NC(=S)N[C@H]2CC[C@@H](Nc3nc4c(c(N(C)C)n3)CCCC4)CC2)c([N+](=O)[O-])c1` [compound 2017], 3 (Class 3 The value of percent of control at 10^−7 M was more than 60% or the value of IC50 was more than 200 nM.).
On to `COc1ccc(CNC(=S)N[C@H]2CC[C@@H](Nc3nc4c(c(N(C)C)n3)CCCC4)CC2)cc1` [compound 2018], for which the class is recorded as 3 (Class 3 The value of percent of control at 10^−7 M was more than 60% or the value of IC50 was more than 200 nM.).
For `COC(=O)c1ccc(NC(=S)N[C@H]2CC[C@@H](Nc3nc4c(c(N(C)C)n3)CCCC4)CC2)cc1` [compound 2019] the value was 3 (Class 3 The value of percent of control at 10^−7 M was more than 60% or the value of IC50 was more than 200 nM.); for `Cc1ccc(NC(=S)N[C@H]2CC[C@@H](Nc3nc4c(c(N(C)C)n3)CCCC4)CC2)c([N+](=O)[O-])c1` [compound 2020], 3 (Class 3 The value of percent of control at 10^−7 M was more than 60% or the value of IC50 was more than 200 nM.).
For `Cc1ccc(CNC(=S)N[C@H]2CC[C@@H](Nc3nc4c(c(N(C)C)n3)CCCC4)CC2)cc1` [compound 2021] the value was 3 (Class 3 The value of percent of control at 10^−7 M was more than 60% or the value of IC50 was more than 200 nM.); for `CCCCc1ccc(NC(=S)N[C@H]2CC[C@@H](Nc3nc4c(c(N(C)C)n3)CCCC4)CC2)cc1` [compound 2022], 3 (Class 3 The value of percent of control at 10^−7 M was more than 60% or the value of IC50 was more than 200 nM.); for `COc1ccc(Cl)cc1NC(=S)N[C@H]1CC[C@@H](Nc2nc3c(c(N(C)C)n2)CCCC3)CC1` [compound 2023], 3 (Class 3 The value of percent of control at 10^−7 M was more than 60% or the value of IC50 was more than 200 nM.).
Consider `CN(C)c1nc(N[C@H]2CC[C@@H](NC(=S)NC(c3ccccc3)c3ccccc3)CC2)nc2c1CCCC2` [compound 2025], for which the class was 3 (Class 3 The value of percent of control at 10^−7 M was more than 60% or the value of IC50 was more than 200 nM.).
The result for `CN(C)c1nc(N[C@H]2CC[C@@H](NC(=S)NC3CCCCCCCCCCC3)CC2)nc2c1CCCC2` [compound 2026] reads 3 (Class 3 The value of percent of control at 10^−7 M was more than 60% or the value of IC50 was more than 200 nM.); that for `CN(C)c1nc(N[C@H]2CC[C@@H](NC(=S)NCC3CCCCC3)CC2)nc2c1CCCC2` [compound 2027], 3 (Class 3 The value of percent of control at 10^−7 M was more than 60% or the value of IC50 was more than 200 nM.); that for `CN(C)c1nc(N[C@H]2CC[C@@H](NC(=S)NC3CC3)CC2)nc2c1CCCC2` [compound 2029], 3 (Class 3 The value of percent of control at 10^−7 M was more than 60% or the value of IC50 was more than 200 nM.).
For `CN(C)c1nc(N[C@H]2CC[C@@H](NC(=S)NCC(c3ccccc3)c3ccccc3)CC2)nc2c1CCCC2` [compound 2030] the value was 2 (Class 2: The value of percent of control at 10^−7 M was from 40% to 60% or the value of IC′50 was from 50 nM to 200 nM.).
The result for `CN(C)c1nc(N[C@H]2CC[C@@H](NC(=S)Nc3c(Cl)c(Cl)cc(Cl)c3Cl)CC2)nc2c1CCCC2` [compound 2031, N-(cis-4-{[4-(dimethylamino)-5,6,7,8-tetrahydroquinazolin-2-yl]amino}cyelohexyl)-N′-(2,3,5,6-tetrachlorophenyl)thiourea] reads 3 (Class 3 The value of percent of control at 10^−7 M was more than 60% or the value of IC50 was more than 200 nM.); that for `CN(C)c1nc(N[C@H]2CC[C@@H](NC(=S)NCc3ccc(Cl)cc3Cl)CC2)nc2c1CCCC2` [compound 2032], 3 (Class 3 The value of percent of control at 10^−7 M was more than 60% or the value of IC50 was more than 200 nM.); that for `CN(C)c1nc(N[C@H]2CC[C@@H](NC(=S)Nc3cc(Br)ccc3Br)CC2)nc2c1CCCC2` [compound 2033], 3 (Class 3 The value of percent of control at 10^−7 M was more than 60% or the value of IC50 was more than 200 nM.).
For the molecule `COc1ccc(OC)c(CCNC(=S)N[C@H]2CC[C@@H](Nc3nc4c(c(N(C)C)n3)CCCC4)CC2)c1` [compound 2034], the class is 3 (Class 3 The value of percent of control at 10^−7 M was more than 60% or the value of IC50 was more than 200 nM.).
For `CN(C)c1nc(N[C@H]2CC[C@@H](NC(=S)Nc3cc([N+](=O)[O-])ccc3Cl)CC2)nc2c1CCCC2` [compound 2035] the value was 3 (Class 3 The value of percent of control at 10^−7 M was more than 60% or the value of IC50 was more than 200 nM.); for `CN(C)c1nc(N[C@H]2CC[C@@H](NC(=S)Nc3ccccc3C#N)CC2)nc2c1CCCC2` [compound 2036], 3 (Class 3 The value of percent of control at 10^−7 M was more than 60% or the value of IC50 was more than 200 nM.).
For `CN(C)c1nc(N[C@H]2CC[C@@H](NC(=S)NCc3ccccc3F)CC2)nc2c1CCCC2` [compound 2037] the value was 3 (Class 3 The value of percent of control at 10^−7 M was more than 60% or the value of IC50 was more than 200 nM.).
The result for `CN(C)c1nc(N[C@H]2CC[C@@H](NC(=S)NC(=O)c3ccco3)CC2)nc2c1CCCC2` [compound 2038] reads 3 (Class 3 The value of percent of control at 10^−7 M was more than 60% or the value of IC50 was more than 200 nM.).
Regarding `COc1ccc([N+](=O)[O-])cc1NC(=S)N[C@H]1CC[C@@H](Nc2nc3c(c(N(C)C)n2)CCCC3)CC1` [compound 2039], the class was 3 (Class 3 The value of percent of control at 10^−7 M was more than 60% or the value of IC50 was more than 200 nM.).
The result for `Cc1ccccc1CNC(=S)N[C@H]1CC[C@@H](Nc2nc3c(c(N(C)C)n2)CCCC3)CC1` [compound 2040] reads 3 (Class 3 The value of percent of control at 10^−7 M was more than 60% or the value of IC50 was more than 200 nM.).
